{"source": "patent US12428406B2", "about": "(PMV Pharmaceuticals, Inc., priority 2019, dated 2025)"}
{"biological_target": "T1, p53 Y220C (Homo sapiens, UniProt P04637, Y220C)", "T1 construct": "The recombinant protein was a truncation mutant containing only amino acids 94-312 of p53; made in house; host or cells: E. coli", "T1 sequence (P04637 94-312, change not shown)": "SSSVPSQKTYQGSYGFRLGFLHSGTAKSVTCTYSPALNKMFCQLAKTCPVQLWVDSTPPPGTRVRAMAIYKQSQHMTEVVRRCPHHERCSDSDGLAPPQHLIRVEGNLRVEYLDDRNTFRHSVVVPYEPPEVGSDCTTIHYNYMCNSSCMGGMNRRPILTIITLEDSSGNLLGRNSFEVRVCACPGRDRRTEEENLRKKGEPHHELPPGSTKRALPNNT", "experiment": "In vitro DNA binding activity assay (HTRF / TR-FRET): stabilization of p53 Y220C and increase of its DNA binding activity", "format": "biochemical", "conditions": "recombinant His-tagged p53 Y220C DNA binding domain (aa 94-312), biotin-labeled consensus DNA, incubated at 27° C. or 29° C. for 60 min", "how_it_was_run": "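E. coli His-p53 Y220C + biotin consensus DNA; anti-His-APC/SA-Eu TR-FRET. SC150 vs no-compound.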"}
{"smiles": "COc1cc(S(C)(=O)=O)ccc1NCC#Cc1cc2c(N[C@@H]3CCCNC3)cccc2n1CC(F)(F)F", "note": "[Compound 463A, 2-{3-[(4-methanesulfonyl-2-methoxyphenyl)amino]prop-1-yn-1-yl}-N-[(3R)-piperidin-3-yl]-1-(2,2,2-trifluoroethyl)-1H-indol-4-amine]", "SC150 (concentration of the compound required to increase the DNA binding activity by 50%)": "+ (+ = 0 μM ≤ SC150 < 0.05 μM)"}
{"smiles": "COc1cc(S(=O)(=O)N(C)C)ccc1NCC#Cc1cc2c(N[C@H]3CC[C@H](N4CC5(COC5)C4)CC3)cccc2n1CC(F)(F)F", "note": "[Compound 267A, 4-((3-(4-(((1R,4R)-4-(2-oxa-6-azaspiro[3.3]heptan-6-yl)cyclo-hexyl)amino)-1-(2,2,2-trifluoroethyl)-1H-indol-2-yl)prop-2-yn-1-yl)amino)-3-methoxy-N,N-dimethylbenzene-sulfonamide]", "SC150 (concentration of the compound required to increase the DNA binding activity by 50%)": "+ (+ = 0 μM ≤ SC150 < 0.05 μM)"}
{"smiles": "COCC(O)CN1CCC(Nc2cccc3c2c(C)c(C#CCNc2ccc(S(C)(=O)=O)cc2OC)n3CC(F)(F)F)CC1", "note": "(centres unmarked) [Compound 676A, 1-{4-[(2-{3-[(4-methanesulfonyl-2-methoxyphenyl)amino]prop-1-yn-1-yl}-3-methyl-1-(2,2,2-trifluoroethyl)-1H-indol-4-yl)amino]piperidin-1-yl}-3-methoxypropan-2-ol]", "SC150 (concentration of the compound required to increase the DNA binding activity by 50%)": "+++ (+++ = 0.1 μM ≤ SC150 < 0.2 μM)"}
{"smiles": "CCC(=O)NS(=O)(=O)c1ccc(NCC#Cc2cc3c(NC4CCN(CC(COC(=O)CC)OC(=O)CC)CC4)cccc3n2CC(F)(F)F)c(OC)c1", "note": "(centres unmarked) [Compound 628A, 1-(4-{[2-(3-{[2-methoxy-4-(propanamidosulfonyl)phenyl]amino}prop-1-yn-1-yl)-1-(2,2,2-trifluoroethyl)-1H-indol-4-yl]amino}piperidin-1-yl)-3-(propanoyloxy)propan-2-yl propanoate]", "SC150 (concentration of the compound required to increase the DNA binding activity by 50%)": "+ (+ = 0 μM ≤ SC150 < 0.05 μM)"}
{"smiles": "CCN(CC)[C@H]1CC[C@H](Nc2cccc3c2cc(C#CCNc2ccc(C(=O)NC)cc2OC)n3CC(F)(F)F)CC1", "note": "[Compound 144A, 3-methoxy-N-methyl-4-{[3-(4-([(1R,4R)-4-(diethylamino)cyclohexyl]amino}-1-(2,2,2-trifluoro-ethyl)-1H-indol-2-yl)prop-2-yn-1-yl]amino}benzamide]", "SC150 (concentration of the compound required to increase the DNA binding activity by 50%)": "+ (+ = 0 μM ≤ SC150 < 0.05 μM)"}
{"smiles": "COc1cc(S(=O)(=O)N(C)CCO)ccc1NCC#Cc1cc2c(NC3CCS(=O)(=O)CC3)cccc2n1CC(F)(F)F", "note": "[Compound 1038A, 4-[(3-{4-[(1,1-dioxo-1λ^6-thian-4-yl)amino]-1-(2,2,2-trifluoroethyl)-1H-indol-2-yl}prop-2-yn-1-yl)amino]-N-(2-hydroxyethyl)-3-methoxy-N-methylbenzene-1-sulfonamide]", "SC150 (concentration of the compound required to increase the DNA binding activity by 50%)": "+ (+ = 0 μM ≤ SC150 < 0.05 μM)"}
{"smiles": "COc1cc(S(=O)(=O)N2CCN(C(C)=O)CC2)ccc1NCC#Cc1cc2c(NC3CCN(CC(O)CO)CC3)cccc2n1CC(F)(F)F", "note": "(centres unmarked) [Compound 577A, 1-[4-(4-{[3-(4-{[1-(2,3-dihydroxypropyl)piperidin-4-yl]amino}-1-(2,2,2-trifluoroethyl)-1H-indol-2-yl)prop-2-yn-1-yl]amino}-3-methoxybenzenesulfonyl)piperazin-1-yl]ethan-1-one]", "SC150 (concentration of the compound required to increase the DNA binding activity by 50%)": "+ (+ = 0 μM ≤ SC150 < 0.05 μM)"}
{"smiles": "COc1cc(C(=O)N2CCC(N(C)C)CC2)ccc1NCC#Cc1cc2c(NC3CCN(C)CC3)cccc2n1CC(F)(F)F", "note": "[Compound 499A, 2-[3-({4-[4-(dimethylamino)piperidine-1-carbonyl]-2-methoxyphenyl}amino)prop-1-yn-1-yl]-N-(1-methylpiperidin-4-yl)-1-(2,2,2-trifluoroethyl)-1H-indol-4-amine]", "SC150 (concentration of the compound required to increase the DNA binding activity by 50%)": "+ (+ = 0 μM ≤ SC150 < 0.05 μM)"}
